Source: patent US12384775B2, “Pyrimid-2-yl-pyrazole compounds as IRAK inhibitors” (Rigel Pharmaceuticals, Inc., priority 2022, dated 2025)

Experiments:
IRAK1 = IRAK1 (Homo sapiens, UniProt P51617); assay: IRAK1 Adapta assay; format: biochemical; conditions: for IC50: n = 1, read-out: IRAK4 IC50 Adapta (n = 1)
Experimental: • Bar-coded Corning, low volume, white 384-well plate (Corning Cat. #4512) • Test Compounds: The Test Compounds are screened in 1% DMSO (final) in the well. For 10 point titrations, 3-fold serial dilutions 10 μM. • Substrate/Kinase Mixture: The 2×IRAK1/Histone H3 (1-20) peptide mixture is prepared in 50 mM HEPES pH 7.5, 0.01% BRIJ-35, 10 mM MgCl2, 1 mM EGTA. • ATP Solution: All ATP Solutions are diluted to a 4× working concentration in water. • ATP Km apparent is previously determined using a radiometric assay except when no substrate is available in which case an Adapta assay is conducted. • Detection Mix: The Detection Mix is prepared in TR-FRET Dilution Buffer. The Detection mix consists of EDTA (30 mM), Eu-anti-ADP antibody (6 nM) and ADP tracer. The detection mix contains the EC60 concentration of tracer for 5-150 μM ATP. IRAK1 Method • 1. 100 nL—100× Test Compound in 100% DMSO • 2. 2.4 μL—30 mM HEPES • 3. 2.5 μL—4×ATP Solution • 4. 5 μL—2× Substrate/Kinase Mixture
The final 10 μL Kinase Reaction consists of 3.17-42 ng IRAK1 and 100 μM Histone H3 (1-20) peptide in 32.5 mM HEPES pH 7.5, 0.005% BRIJ-35, 5 mM MgCl2, 0.5 mM EGTA. • 5. 30-second plate shake • 6. 1-minute centrifuge at 1000× g • 7. 60-minute Kinase Reaction incubation at room temperature • 8. 5 μL—Detection Mix • 9. 30-second plate shake • 10. 1-minute centrifuge at 1000× g • 11. 60-minute Detection Mix equilibration at room temperature • 12. Read on fluorescence plate reader and analyze the data

IL23p19 in THP-1 Cells = assay: LPS induced IL23p19 in THP-1 cells (IFNγ primed), ELISA; format: cell-based; conditions: Homo sapiens; for IC50: THP-1, LPS, read-out: Cell Assays IC50, IL-23 (LPS, THP-1)
Experimental: On day 1, 50K/well THP-1 cells were seeded and primed with IFNγ (50 ng/mL) in 384-well plates for about 18 hours in RPMI media with 10% FBS. On day 2, the compound was serially diluted in DMSO from 5 mM in 3-fold dilutions, and then diluted 1:125 in RPMI media with 10% FBS. 50 μL/well 2× compound was added to 50 μL/well THP-1 cells (with IFNγ primed) in duplicate in 384 well tissue culture plates. The cells were pre-incubated with compound for 1 hour at 37° C., 5% CO2 before addition of 10 μL/well 11×LPS to give a final concentration of 1 μg/mL LPS. Day 3, after stimulation for 18 hours at 37° C., 5% CO2, the assay plate was centrifuged and 70 μL/well supernatant was harvested. IL-23p19 protein in 70 μL/well of supernatant was measured by sandwich ELISA, and 25 μl/well Cell Titer Glo reagent was added to the remaining cells to measure compound toxicity.
Maxisorp immuno ELISA plates were pre-coated with 25 μL/well of anti-IL-23p19 capture antibody (2.5 ug/mL) in PBS overnight at room temperature. After washing with 1×PBST, the plates were blocked using 100 μL/well of 1% BSA in PBS for 2 hours at room temperature. The plates were washed three times with 1×PBST and 70 μL/well supernatant were added. The plates were incubated at room temperature for 2 hours with shaking and washed three times with 1×PBST. 25 μL/well of biotin labeled anti-IL-12 (p40/p70) detection antibody (100 ng/mL) in PBS with 1% BSA was added and the plates were incubated at room temperature for 2 hours with shaking. After washing three times with 1× PBST, 25 μL/well of streptavidin-HRP (1:200) in PBS with 1% BSA was added and the plates were incubated at room temperature for 20 minutes with shaking. The plates were washed three times with 1× PBST and 25 μL/well of Super Signal ELISA Pico Chemiluminescent Substrate were added. The plates were read with a luminometer, and the chemiluminescence values were entered into Athena (Rigel) for curve fitting, EC50 calculation, and database storage.
THP-1 cells (100K in 100 μL/well) were primed with 25 ng/mL IFN-γ for 18 hours at 37° C., 5% CO2. Compound was serially diluted in DMSO from 2.5 mM in 4-fold dilutions, and then diluted 1:125 in RPMI 1640 complete media with 10% FBS. 100 μL/well 2× compound was mixed with the 100 μL/well IFN-7 primed THP-1 in 96 well flat-bottom white tissue culture plates. The cells were pre-incubated with compound for 1 hour at 37° C., 5% CO2 and before addition of 10 μL/well 21×LPS to give a final concentration of […] for LPS. The cells were stimulated with LPS for 18 hours at 37° C., 5% CO2. After centrifugation, 100 μL/well supernatant was extracted by using a multichannel pipette. IL-23p19 or TNF-α protein in the supernatant were measured by sandwich ELISA. The remaining IFN-7 primed THP-1 cell pellets were used to perform cell viability assays to determine compound cell toxicity. The plates were read with a luminometer, and the chemiluminescence values were entered into Athena (Rigel) for curve fitting, EC50 calculation, and database storage.
Maxisorp immuno ELISA plates were pre-coated with 100 μL/well of anti-IL-23p19 capture antibody (2.4 μg/mL) in PBS overnight at room temperature. After washing with 1×PBST, the plates were blocked using 300 μL/well of 1% BSA in PBS for 2 hours at room temperature. The plates were washed three times with 1×PBST and 100 μL/well supernatant was added. The plates were incubated at room temperature for 2 hours with shaking. The plates were washed three times with 1×PBST and 100 μL/well of biotin anti-human IL-12 (p40/70) detection antibody (10 ng/mL) in PBS with 0.1% BSA were added. The plates were incubated at room temperature for 2 hours with shaking. The plates were washed three times with 1×PBST and 100 μL/well streptavidin-HRP (1:200) in PBS with 0.1% BSA was added. The plates were incubated at room temperature for 20 minutes with shaking. […]

Chain of IRAK1 (P51617 whole entry): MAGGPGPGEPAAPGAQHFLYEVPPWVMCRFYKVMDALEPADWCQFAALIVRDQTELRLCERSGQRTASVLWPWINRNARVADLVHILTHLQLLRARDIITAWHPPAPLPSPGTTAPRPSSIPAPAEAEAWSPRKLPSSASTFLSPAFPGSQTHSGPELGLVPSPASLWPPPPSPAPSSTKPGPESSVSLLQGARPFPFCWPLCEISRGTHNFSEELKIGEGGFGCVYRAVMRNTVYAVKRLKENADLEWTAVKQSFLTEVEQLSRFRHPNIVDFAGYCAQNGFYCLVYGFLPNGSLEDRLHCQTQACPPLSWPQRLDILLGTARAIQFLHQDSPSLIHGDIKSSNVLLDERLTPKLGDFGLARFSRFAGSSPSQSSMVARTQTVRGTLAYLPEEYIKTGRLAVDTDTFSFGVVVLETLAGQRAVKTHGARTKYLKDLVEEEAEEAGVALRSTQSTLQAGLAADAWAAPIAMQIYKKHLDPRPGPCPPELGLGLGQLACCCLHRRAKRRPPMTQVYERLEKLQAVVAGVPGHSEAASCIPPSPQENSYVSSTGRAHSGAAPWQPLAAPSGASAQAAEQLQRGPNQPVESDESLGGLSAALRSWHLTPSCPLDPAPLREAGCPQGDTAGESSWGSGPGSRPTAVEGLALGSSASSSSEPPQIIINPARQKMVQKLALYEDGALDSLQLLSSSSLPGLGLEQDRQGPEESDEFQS

| SMILES | IC50 (IRAK1) | IC50 (IL23p19 in THP-1 Cells) | EC50 (IRAK1) | EC50 (IL23p19 in THP-1 Cells; THP-1 cells IFNγ primed, LPS 1 μg/mL, 18 h, read-out: IL23-p19 ELISA, THP1-IFNy, LPS, 10 pt EC50) |
| --- | --- | --- | --- | --- |
| CCO[C@H]1CC[C@H](n2cc(NC(=O)c3csc(-c4cn[nH]c4)n3)c(-c3nc(F)ccc3F)n2)CC1 [Comparison-1, reference compound] | 14 nM | 63 nM | – | – |
| CCO[C@H]1CC[C@H](n2cc(NC(=O)c3csc(-c4cn[nH]c4)n3)c(-c3ncccn3)n2)CC1 [Compound I-1, N-(1-((1r,4r)-4-ethoxycyclohexyl)-3-(pyrimidin-2-yl)-1H-pyrazol-4-yl)-2-(1H-pyrazol-4-yl)thiazole-4-carboxamide] | 4 nM | 8 nM | 4 nM | 8 nM |
